From patent US20050124618A1, “Methods of modulating angiogenesis and cancer cell proliferation” (priority 2003, published 2005)
Entries after “also recorded” stand apart in the source; their conditions may differ.

Columns and labels:
20-HETE [1] = test: 20-HETE formation in electrically stimulated skeletal (TA) muscle of rats; type: in vivo, rat; settings: 7 days of electrical stimulation; chronic treatment
Description: (§1) Experimental protocols and tissue preparation: After a 24-h recovery period, the implanted stimulator was activated by momentary closure of the magnetic reed switch using a small hand-held magnet. […] Contractions of the extensor digitorum longus (EDL) and tibialis anterior (TA) muscles were automatically initiated at 9 AM each day and sustained for 8 h/day over a consecutive 7-day period. At the end of the stimulation period, the animals were euthanized by an overdose of pentobarbital sodium (100 mg/kg ip), and the EDL and TA muscles were harvested for analysis as previously described (Greene A S et al., Hypertension 15: 779-783, 1990; and Parmentier J H et al., Hypertension 37: 623-629, 2001).
The rats were divided in four groups. […] This dose was chosen based on our previous results (Kehl F et al., Am J Physiol Heart Circ Physiol 282: H1556-H1565, 2002).
To determine the contribution of VEGF to the angiogenesis induced by electrical stimulation, six rats in group 3 were treated with 3 mg/kg ip injections of a monoclonal VEGF-neutralizing antibody (Texas Biotechnology; Houston, Tex.) during the period of electrical stimulation. The protocol for administration of VEGF-neutralizing antibody was modified from Zheng W et al. (Circ Res 85: 192-198, 1999), and this dose was based on our previous results (Amaral S L et al., Microcirculation 8: 57-67, 2001). After the stimulation period was started, the rats received intraperitoneal injections on days 3, 5, and 7 (0.6 mg/100 g).
Muscle preparations for measurement of 20-HETE: The 100-200 mg of frozen TA muscle were homogenized in a solution containing 1 ml of acidified water and 50 μl of an internal standard, WIT-002, which was synthesized and kindly provided by Taisho Pharmaceutical. Ethyl acetate (3 ml, Fisher Scientific; Pittsburgh, Pa.) was added to the mixture and gently vortexed. The homogenized tissues were then centrifuged at 3,000 revolutions/min for 2 min. With the use of a glass Pasteur pipet, the top layer was removed and transferred to a sterile glass vial, and the samples were dried under nitrogen and stored at −80° C.
Labeling of samples and fluorescent detection of 20-HETE: Detection of 20-HETE was performed as previously described (Ma Y H et al., Am J Physiol Regul Integr Comp Physiol 267: R579-R589, 1994). Samples, which were extracted and dried under argon, were resuspended in 20 μl of acetonitrile containing 36.4 mM 2-(2,3-napthalimino)ethyl trifluoromethanesulfonate, and N,N-diisopropylethylamine (10 μl) was added as a catalyst. The sample was reacted for 30 min at room temperature, dried under argon, resuspended in 1 ml of 40% acetonitrile-water, and applied to a Sep-Pak Vac column. The column was washed with 6 ml of 50% acetonitrile-water solution to remove unreacted dye, eluted with 500 μl of ethyl acetate, dried under argon, and resuspended in 100 μl of the HPLC mobile phase [methanol-water-acetic acid, 82:18:0.1 (vol/vol)]. A 25-μl aliquot of the derivatized sample was separated on a 4.6×250-mm Symmetry C18 reverse-phase HPLC column (Waters) isocratically at a rate of 1.3 ml/min using methanol-water-acetic acid (82:18:0.1 (vol/vol)) as the mobile phase. Fluorescence intensity monitored using an in-line fluorescence detector (model number L-7480, Hitachi; Naperville, Ill.) at medium gain sensitivity. The amount of 20-HETE in the sample was determined by comparing the area of the 20-HETE peak with that of the internal standard (WIT-002).

[2] = system: extensor digitorum longus (EDL) and tibialis anterior (TA) muscles; test: Vessel density of EDL and TA muscles after 7 days of electrical stimulation; type: in vivo, rat
Description: as §1
Tissue harvest and morphological analysis of vessel density: The stimulated and contralateral muscles were removed, weighed, and rinsed in physiological salt solution. A 300-mg sample was taken from the rostral portion of the TA muscle and frozen in liquid nitrogen for Western blot (100 mg) and HPLC (200 mg) analysis for measurement of VEGF protein expression and 20-HETE formation, respectively. The remaining TA and EDL muscles were lightly fixed in a 0.25% formalin solution overnight. The muscles were sectioned via a manual microtome to a thickness of about 100 μm by securing the tendons and slicing parallel to the longitudinal orientation of the muscle fibers. From every animal, two slices of each EDL muscle and three slices of each TA muscle were made. The slices were than immersed for 2 h in a solution of 25 μg/ml rhodamine-labeled Griffonia simplicifolia I (GS-I) lectin (Sigma; St. Louis, Mo. (Greene A S et al., Hypertension 15: 779-783, 1990)). Immediately after this 2-h exposure to GS-I lectin, the muscles were rinsed in physiological solution. The rinsing procedure was repeated after 15 and 30 min, and the muscles were rinsed in physiological saline solution for 12 h (overnight, at 4° C.). On the next day, the slices were mounted on microscope slides with a water-soluble mounting medium consisting of toluene and acrylic resin (SP ACCU-MOUNT 280, Baxter Scientific).
The labeled sections were visualized using a video fluorescent microscope system (Olympus ULWD CD Plan, ×20 objective, 1.6 cm working distance and 0.4 numerical aperture) with epi-illumination, as previously described (Parmentier J H et al., Hypertension 37: 623-629, 2001). In the present study, 10-15 and 20-25 representative fields were selected for study from each EDL and TA muscle slice, respectively. Each field was converted to a digitized image (DT2801 Data Translation; Marlboro, Mass.) and stored as an 8-bit/pixel image file with a resolution of 512×512 pixels. Morphometric analysis of the scanned histochemical sections was done as previously described (Parmentier J H et al., Hypertension 37: 623-629, 2001).
Data analysis and statistics: For each muscle, the vessel counts of all the selected fields (10-15 scans×2 slices for each EDL muscle; 20-25 scans×3 slices for each TA muscle) were averaged to a single vessel density. Vessel density was expressed in terms of the mean number of vessel-grid intersections per microscope field (0.224 mm^2). For each experimental group, the measured vessel density and 20-HETE formation of the stimulated muscle was compared with its unstimulated counterpart as well as with age-matched controls. All values are presented as means±SE. The significance of differences in values measured in the same animal was evaluated using a two-factor ANOVA (drug×stimulation) with repeated measures on one factor (stimulation). Significant differences were further investigated using a post hoc test (Tukey's).

VEGF = test: Western blot of VEGF protein expression in TA muscle; type: in vivo, rat
Description: Western blot analysis to detect the presence of VEGF protein: The 100-mg TA muscle specimens were homogenized, and the protein was suspended in potassium buffer (10 mM). Five micrograms of protein (as determined by a protein assay kit, Bio-Rad; Hercules, Calif.) from the TA and a tumor cell line known to express VEGF at high levels (C6, American Type Culture Collection, 107-CCL) were separated on a 12% denaturing polyacrylamide gel. The gels were transferred to a nitrocellulose membrane, which was blocked overnight in 5% nonfat dry milk diluted in Tris-buffered saline (50 mM Tris and 750 mM NaCl, pH 8) with 0.08% Tween 20 (Bio-Rad). The blots were then incubated with a […] antibody to a peptide derived from the human VEGF sequence (1:1,000 dilution, clone G143-850, Pharmingen) for 2 h at room temperature. Washed blots were then incubated with goat anti-mouse secondary antibody at a dilution of 1:1,000 for 1 h at room temperature and then subjected to a SuperSignal West Dura chemiluminescence substrate (Pierce; Rockford, Ill.) detection system. Membranes were exposed to X-ray film (Fuji Medical; Stamford, Conn.) for 15 to 30 s and developed using a Kodak M35 X-Omat processor. For the quantitative VEGF analysis, film was always exposed for a period of time that ensured that all signals were within the linear range of the detection of the film. The VEGF band intensity was quantified using a morphometry imaging system (Metamorph, Universal Imaging; West Chester, Pa.), and values are expressed as a percentage of the C6 tumor cell standard.

20-HETE [3] = settings: cited from earlier work
[4] = chronic treatment, 7 days electrical stimulation

With `Nn1nnc2ccccc21` [ABT, 1-aminobenzotriazole] as the compound, how does the “effect on the increase of 20-HETE formation induced by electrical stimulation” value (20-HETE [1]) read?
Its value is “blocked”.

And the “effect on the increase in vessel density (angiogenesis) induced by electrical stimulation” value ([2]; 7 days, HET0016 2 mg kg−1 day−1, ABT 50 mg kg−1 day−1)?
Its value is “blocked; also recorded: attenuated”.

What about the “vessel density, EDL, unstimulated side” value ([2]; chronic treatment, 7 days) of the same compound?
Its value is 111±7.4 number of vessel intersections.

And the “vessel density, TA, unstimulated side” value ([2]; chronic treatment, 7 days)?
The value was 99.7±4.72 number of vessel intersections.

What about the “vessel density, EDL, stimulated side” value [2, 4] of the same compound?
The value was 121±4.35 number of vessel intersections.

What about the “vessel density, TA, stimulated side” value [2, 4] of the same compound?
The value was 119.5±4.51 number of vessel intersections.

What about the “effect on increases in VEGF protein expression induced by electrical stimulation” value (VEGF; 7 days stimulation) of the same compound?
The value was “did not block”.

And the “effect on baseline VEGF expression” value (VEGF; 7 days treatment)?
The value was “Neither HET0016 nor ABT had any effect”.

What about the “ability to reduce 20-HETE levels in vivo” value (20-HETE [3]) of the same compound?
Its value is “reduce 20-HETE levels in vivo”.
